Experimental data taken from US20200054649A1, “SKELETAL MUSCLE HYPERTROPHY INDUCERS” (CYTOO, priority 2016, published 2020).
Where two headings read alike, the source gives them in different places.

Columns and labels:
[1] = test system: Myotubes from the healthy donor 3 atrophied with IL-1β, TNF-α or Myostatin; test: MyoScreen atrophy rescue assay (IL-1β, TNF-α, myostatin as atrophy inducers); assay type: cell-based, human; design: key: +++: total rescue; ++: partial rescue; +: low rescue; settings: nestorone 1 μM, corticosterone 3 μM, mifepristone 1 μM; for atrophy rescue, TNF-alpha: atrophy inducer TNF-α 2 ng/mL; for atrophy rescue, Myostatin: atrophy inducer myostatin 150 ng/mL
Protocol: (§1) Hypertrophy and Atrophy Rescue assays were performed using an in vitro fully automated human myotube model called MyoScreen (Cytoo, France). This model relies on a tight control of the microenvironment that guides the differentiation of human primary myoblasts. Myotubes formed on MyoScreen™ micropatterns present a high level of maturation together with a highly standardized morphology.
(§2) Human primary myoblasts from donors 1, 3 and Z were seeded in MyoScreen™ micropatterned 96-well plates (Cytoo, France), let them adhere for 24 h in growth medium, then run the differentiation in a low horse serum medium for at least 5 days.
(§3) At Day0, MyoScreen™ plates (Cytoo, France) containing micropatterns were pre-filled with 200 μl/well of growth medium and stored in the incubator at 37° C. Human primary myoblasts were detached from the flasks, count, and seeded into the plates with 15 000 cells per well in 100 μl of growth medium.
(§4) At Day 1, the growth medium was changed for a differentiation medium, 300 μl/well (DMEM with 0.1% horse serum) in which myoblasts started differentiating and forming myotubes.
(§5) At Day 2, the differentiation medium was changed. Then candidate compounds were diluted with differentiation medium and transferred into the plate. The final concentration of DMSO should be not higher than 0.1%. At least 6 wells were treated with the vehicle as a basal control, and 6 wells were treated with IGF-1 at 100 ng/ml as positive hypertrophy control.
For Atrophy Rescue assay, one hour after candidate compound addition, atrophy inducers were added at the following final concentration: 150 ng/mL of myostatin, 25 ng/mL of […] and 2 ng/mL of TNF-α.
(§6) At Day 6, cells were fixed with formalin 5% for 30 min at room temperature, then permeabilized with Triton X-100 at 0.1% in PBS for 15 min, and blocked with PBS+BSA 1% for 20 minutes. Myotubes were incubated with first antibody against Troponin T in blocking buffer for 1 h30, washed three times with PBS, incubated with secondary antibody and Hoescht (1/10 000) for 1 h30, and washed three times with PBS.
(§7) Images were acquired at 10× magnification with an Operetta High Content Imaging System. Image processing and analysis were performed with dedicated algorithms developed on the Acapella High Content Imaging Software (Perkin Elmer) by CYTOO. Eleven fields per well were acquired.
(§8) First, segmentation of myotubes and nuclei were done using respectively the Troponin T staining intensity and the Hoechst staining. One to two myotubes per micropattern were usually identified (a myotube is a troponin T staining area that includes at least 2 nuclei). The threshold of segmentation was set-up in order to avoid detecting the background noise and eliminate aberrant small myotube structures. At the end of this first step, specific readouts were calculated in the whole well, like the nuclei count and the fusion index (percentage of nuclei included in troponin T staining). Usually around 50 to 60 myotubes were detected per well in a control condition.
(§9) Then, an image clean-up step was performed on the Troponin T images in order to remove myotubes that touch the border of the image. The final valid myotubes were used to extract myotube morphology parameters including the myotube width and area, and the number of nuclei per myotube.
(§10) Nuclei Count, Fusion Index, Mean myotube Area and Number of nuclei per myotube have been validated as relevant and sensitive readouts of myotube differentiation as well as atrophic and hypertrophic induction.
Atrophy Rescue assays were performed in the presence of atrophy inducers, i.e. TNF-α, IL-1β and Myostatin. Each compound was tested in triplicate of wells at 1 μM for nestorone, 3 μM for corticostestrone and 1 μM for mifepristone.
Myotubes from the healthy donor 3 were atrophied using different inducers: inflammation cytokines IL-1β and TNF-α and SMAD pathway activator Myostatin. The ability of each compound to block the atrophy induced by these different atrophy inducers was determined.

[2] = test system: Human primary myoblasts (HSMM) from healthy Donor 3, myotubes; test: MyoScreen hypertrophy assay on human primary myoblasts/myotubes, healthy Donor 3; assay type: cell-based; settings: for EC50 / activity at 10 µM: Homo sapiens
Protocol: (§11) Healthy donor primary skeletal cells (Donor 1 and Donor 3) were Clonetics™ Human Skeletal Muscle Myoblasts (HSMM).
as §1, §2, §3, §4, §5, §6, §7, §8, §9, §10
A primary screening was run to identify hypertrophy compounds that increase the myotube differentiation and size. Candidate compounds were tested at 10 μM in monoplicate on Donor 3 cells.
A retest was run, by cherry picking (same compound batch as primary screening): each hit was tested in the same conditions as in the Primary Screening (Donor 3, 10 μM) in six well replicates.
Dose response assays were performed on three donors (Healthy Donors 3 and 1, DMD Donor Z): 8 doses of candidate compounds between 33 μM and 0.015 μM, 2 well replicates per dose. […]

[3] = test system: Myotubes from the healthy donor 3 atrophied with IL-1β, TNF-α or Myostatin; test: MyoScreen atrophy rescue assay (IL-1β, TNF-α, myostatin as atrophy inducers); assay type: cell-based, human; design: key: +++: total rescue; ++: partial rescue; +: low rescue; settings: atrophy inducer IL-1β 25 ng/mL, nestorone 1 μM, corticosterone 3 μM, mifepristone 1 μM
[4] = test system: Human primary myoblasts from DMD (Duchenne muscular dystrophy) Donor Z, myotubes; test: MyoScreen hypertrophy assay, dose response, DMD Donor Z; assay type: cell-based; settings: for DMD myotube size and differentiation / EC50 / % Activity: Donor Z (DMD); for DMD myotube size and differentiation: dose response; for EC50: Homo sapiens, not defined precisely; for EC50 / % Activity: first dose response assay; for activity: additional dose response assay, Donor Z, Mifepristone at 300 nM, IGF-1 positive control
Protocol: In addition, cells from a DMD (Duchenne muscular dystrophy) donor were sourced (Donor Z) and used to confirm primary hits.
as §1, §2, §3, §4, §5, §6, §7, §8, §9, §10
(§12) Dose response assays were performed on three donors (Healthy Donors 3 and 1, DMD Donor Z): 8 doses of candidate compounds between 33 μM and 0.015 μM, 2 well replicates per dose.
(§13) Compounds of interest were tested several times in dose response, with triplicate of wells per dose. Results were normalized to the control condition (basal level), and plotted using GraphPadm Prism. The readout “nuclei count” allowed detecting any toxicity effect. The readouts “fusion index” and “myosin area” were used to determine the EC50 value using the GrapgPad Prism fitting solution. […]

[5] = test system: Human primary myoblasts (HSMM) from healthy Donor 1, myotubes; test: MyoScreen hypertrophy assay, dose response, healthy Donor 1; assay type: cell-based; settings: first dose response assay; for EC50: Homo sapiens, not defined precisely
Protocol: as §11, §1, §2, §3, §4, §5, §6, §7, §8, §9, §10, §12, §13

[6] = first dose response assay, Donor 3, not defined precisely
[7] = second dose response assay, Donor 3, lower concentrations
[8] = Donor 3, compounds at 10 μM, monoplicate, % Activity = myotube fusion index (compound)*100/fusion index (basal control), IGF-1 at 100 ng/ml, read-out: Primary screening (% Activity)
[9] = Donor 3, compounds at 10 μM, six well replicates, % of basal control fusion index, IGF-1 at 100 ng/ml, read-out: Retest (% Activity)
[10] = first dose response assay, Donor 3, 33 μM to 0.015 μM

Row | Compound | atrophy rescue, TNF-alpha [1] | atrophy rescue, Myostatin [1] | EC50 [2, 6] | EC50 [2, 7] | activity at 10 µM [2, 8] | activity at 10 µM [2, 9] | % Activity [2, 10] | % Activity [2, 7] | atrophy rescue, IL-1 [3] | DMD myotube size and differentiation [4] | EC50 [4] | % Activity [4] | EC50 [5] | % Activity [5] | activity [4] | Primary screening (% Activity) ([2]; Donor 3, compounds at 10 μM, monoplicate, % Activity = myotube fusion index (compound)*100/fusion index (basal control), IGF-1 at 100 ng/ml) | Retest (% Activity) ([2]; Donor 3, compounds at 10 μM, six well replicates, % of basal control fusion index, IGF-1 at 100 ng/ml)
1 | C[C@]12C[C@H](O)[C@H]3[C@@H](CCC4=CC(=O)CC[C@@]43C)[C@@H]1CC[C@@H]2C(=O)CO [Corticosterone] | ++ | +++ | ~100 nM | 200 nM | 148% | 128% | 114% | 120% | ++ | significant increase | ~500 nM | 145% | ~1000 nM | 134% |  |  | 
2 | CC(=O)O[C@]1(C(C)=O)CC[C@H]2[C@@H]3C=C(C)C4=CC(=O)CC[C@]4(C)[C@H]3CC[C@@]21C [Megestrol acetate] |  |  |  |  | 133% | 125% |  |  |  |  |  |  |  |  |  |  | 
3 | C=C1C[C@H]2[C@@H]3C=C(C)C4=CC(=O)CC[C@]4(C)[C@H]3CC[C@]2(C)[C@@]1(OC(C)=O)C(C)=O [Melengestrol acetate] |  |  |  |  | 140% | 140% |  |  |  |  |  |  |  |  |  |  | 
4 | CC#C[C@]1(O)CC[C@H]2[C@@H]3CCC4=CC(=O)CCC4=C3[C@@H](c3ccc(N(C)C)cc3)C[C@@]21C [Mifepristone] | ++ | +++ | ~50 nM | 100 nM | 140% | 173% | 133% | 135% | +++ |  |  |  | ~5 nM | 145% | 156% |  | 
5 | C=C1C[C@H]2[C@@H]3CCC4=CC(=O)CC[C@@H]4[C@H]3CC[C@]2(C)[C@@]1(OC(C)=O)C(C)=O [Nestorone] | + | ++ | ~100 nM | 200 nM | 153% | 189% | 115% | 133% | ++ | significant increase | ~100 nM | 181% | ~100 nM | 130% |  |  | 
6 | CC(=O)[C@H]1CC[C@H]2[C@@H]3CCC4=CC(=O)CC[C@]4(C)[C@H]3CC[C@]12C [Progesterone] |  |  |  |  | 137% | 114% |  |  |  |  |  |  |  |  |  |  | 
7 | IGF-1: IGF-1 at 100 ng/ml as positive hypertrophy control | +++ | +++ |  |  |  |  | 150% | 150% | +++ |  |  | 250% |  | 150% | 200% | 210% | 190%
